Results reported in patent US12064516B2, “Pharmaceutical formulations and uses thereof” (Aldeyra Therapeutics, Inc., priority 2020, dated 2024).

Legend:
[1] = system: malondialdehyde (MDA); assay: Plasma malondialdehyde (MDA) in Phase 1 subjects administered I-1 orally; format: in vivo, human; details: healthy volunteers
[2] = Phase 1 clinical trial, single ascending dose (SAD) pharmacokinetics; format: in vivo, human; details: healthy volunteers; for AUC(0-inf) / Cmax / half-life: human, in vivo, po
Source text: Pharmacokinetic data are presented below.

[3] = Tolerability as a systemic dose, I-1 versus ADX-102; format: in vivo
Experimental: (§1) Compound I-1 is the des-chloro analog of ADX-102. […] We have therefore investigated compound I-1 in 90-day toxicology studies in rat and dog as well as 10-day studies in man. We compared two data sets to contrast the pharmacokinetics of the two test articles. A 50 mg/kg oral dose PK study of compound I-1 was conducted in Sprague-Dawley rats using methylcellulose suspension. A pharmacokinetic study of ADX-102 was also conducted in Sprague Dawley rats at a dose of 10 mg/kg in a methylcellulose suspension that also contained Tween 80. Both studies also incorporated intravenous administration in captisol for the calculation of clearance and steady state volume of distribution.

[4] = Pharmacokinetic comparison of ADX-102 (reproxalap) and compound I-1 in rats; format: in vivo, Sprague-Dawley rats
Experimental: as §1, with “A pharmacokinetic study of ADX-102 was also conducted in Sprague Dawley rats at a dose of 10 mg/kg in a methylcellulose suspension that also contained Tween 80.” left out
Both studies were dosed by oral gavage. Bioanalysis was conducted using LC-MS/MS. Further details of the experimental approach can be found in the individual reports.

[5] = 100 mg, oral single dose 100 mg
[6] = 200 mg, oral single dose 200 mg
[7] = 400 mg, oral single dose 400 mg
[8] = 700 mg, oral single dose 700 mg
[9] = 1200 mg, oral single dose 1200 mg
[10] = SD Rat, oral gavage 50 mg/kg, 0.5% MC
[11] = Sprague-Dawley, in vivo, SD Rat, oral gavage 50 mg/kg, 0.5% MC

With CC(C)(O)c1nc2ccccc2cc1N [I-1] the “free MDA levels in plasma” value [1] was “decrease in free MDA levels”, the AUCinf ([2]; oral single dose 20 mg) was 50.0 ng·h/mL and the AUCinf ([2]; oral single dose 50 mg) was 156 ng·h/mL. It also gave an AUCinf ([2]; oral single dose 100 mg) of 433 ng·h/mL, an AUCinf ([2]; oral single dose 200 mg) of 1140 ng·h/mL and an AUCinf ([2]; oral single dose 400 mg) of 2730 ng·h/mL. For the same compound, the AUCinf ([2]; oral single dose 700 mg) was 6710 ng·h/mL, the AUCinf ([2]; oral single dose 1200 mg) was 14500 ng·h/mL and the AUC(0-inf) ([2]; 20 mg, oral single dose 20 mg) was roughly 50 ng·h/mL. It also gave a Cmax ([2]; 20 mg, oral single dose 20 mg) of roughly 26.4 ng/mL, an AUC(0-inf) ([2]; 50 mg, oral single dose 50 mg) of roughly 156 ng·h/mL and a Cmax ([2]; 50 mg, oral single dose 50 mg) of roughly 56.7 ng/mL. For the same compound, the AUC(0-inf) [2, 5] was roughly 433 ng·h/mL, the Cmax [2, 5] was roughly 140 ng/mL and the half-life [2, 5] was 3.52 h. It also gave an AUC(0-inf) [2, 6] of roughly 1140 ng·h/mL, a Cmax [2, 6] of roughly 459 ng/mL and a half-life [2, 6] of 6.04 h. For the same compound, the AUC(0-inf) [2, 7] was roughly 2730 ng·h/mL, the Cmax [2, 7] was roughly 869 ng/mL and the half-life [2, 7] was 6.15 h. It also gave an AUC(0-inf) [2, 8] of roughly 6710 ng·h/mL, a Cmax [2, 8] of roughly 2020 ng/mL and a half-life [2, 8] of 7.33 h. It also gave an AUC(0-inf) [2, 9] of roughly 14500 ng·h/mL, a Cmax [2, 9] of roughly 4220 ng/mL and a half-life [2, 9] of 7.69 h. For the same compound, the “tolerability as a systemic dose compared with ADX-102” value [3] was “generally better tolerated than ADX-102”, the “AUC 0-inf/Dose” value [4, 10] was 153 and the “AUC 0-t/Dose” value [4, 10] was 146. It also gave a Vd ([4]; Sprague-Dawley, in vivo, SD Rat, intravenous data using captisol formulation, read-out: Vss) of 3.13 L/kg, an AUC(0-inf) [4, 11] of 7670 ng·h/mL and an AUC(0-t) [4, 11] of 7300 ng·h/mL. For the same compound, the Cmax [4, 11] was 4990 ng/mL, the Tmax [4, 11] was 0.32 h and the “dose-normalized AUC relative to ADX-102” value ([4]; rats, oral, I-1 50 mg/kg vs ADX-102 10 mg/kg) was “approximately double”.
